One may read the IC50 as the concentration that inhibits the measured activity by half.

Consider seven molecules from patent US10562909B2, “Fused quadracyclic compounds, compositions and uses thereof” (Tabomedex Biosciences, LLC, priority 2016, dated 2020).

The target in the test is MAPKAPK2 (Homo sapiens, UniProt P49137). Description: MK2 Enzymatic Assay. It is filed as biochemical. To be noted: 0.5 nM MAPKAPK2, 3 μM ATP, 2 μM Ser/Thr4 peptide, 23° C., values given as concentration bins. In outline: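 Percent phosphorylation was derived from coumarin and fluorescein emissions relative to 0% and 100% phospho-peptide controls, read after a 120 min development step. Reactions used 2× stocks of 1 nM kinase, 4 μM peptide and 6 μM ATP; enzyme and peptide sat 20 min before a 120 min ATP reaction.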
Chain of MAPKAPK2 (P49137 whole entry, species assumed): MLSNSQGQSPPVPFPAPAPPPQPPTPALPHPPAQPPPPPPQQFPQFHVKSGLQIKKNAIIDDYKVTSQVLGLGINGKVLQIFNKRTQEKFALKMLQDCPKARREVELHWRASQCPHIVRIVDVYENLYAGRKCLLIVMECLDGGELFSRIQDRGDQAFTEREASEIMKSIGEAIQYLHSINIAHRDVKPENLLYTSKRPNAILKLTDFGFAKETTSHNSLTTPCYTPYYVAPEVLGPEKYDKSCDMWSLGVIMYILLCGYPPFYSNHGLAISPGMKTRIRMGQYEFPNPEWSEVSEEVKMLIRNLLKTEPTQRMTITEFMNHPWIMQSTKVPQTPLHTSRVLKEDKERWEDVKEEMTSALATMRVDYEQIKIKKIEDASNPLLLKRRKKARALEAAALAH
Consider `CN(C)C[C@H]1CN(c2ccc3c(c2)Cn2cc(-c4ccc(F)cc4)cc2-c2ncnn2-3)C[C@H]1F` (relative stereo) [Compound 502, 1-(cis-4-fluoro-1-(12-(4-fluorophenyl)-9H-benzo[e]pyrrolo[1,2-a][1,2,4]triazolo[5,1-c][1,4]diazepin-7-yl)pyrrolidin-3-yl)-N,N-dimethylmethanamine], for which the IC50 is less than 50 nM.
`C[C@H](CO)NC[C@H]1CCN(c2ccc3c(c2)Cn2cc(-c4ccc(C#N)cc4)cc2-c2nccn2-3)C1` [Compound 136, 4-(7-((R)-3-((((R)-1-hydroxypropan-2-yl)amino)methyl)pyrrolidin-1-yl)-9H-benzo[e]imidazo[2,1-c]pyrrolo[1,2-a][1,4]diazepin-12-yl)benzonitrile] showed an IC50 of less than 50 nM.
For `CN[C@H]1CCN(c2ccc3c(c2)Cn2cc(-c4ccc(F)cc4F)cc2-c2ncnn2-3)C1` [Compound 451, (S)-1-(12-(2,4-difluorophenyl)-9H-benzo[e]pyrrolo[1,2-a][1,2,4]triazolo[5,1-c][1,4]diazepin-7-yl)-N-methylpyrrolidin-3-amine] the value was 100 to 200 nM.
In turn, `O[C@H]1CN(c2ccc3c(c2)Cn2cc(-c4ccc(F)cc4)cc2-c2nccn2-3)C[C@@H]1CNC1CC1` [Compound 473, (3R,4S)-4-((cyclopropylamino)methyl)-1-(12-(4-fluorophenyl)-9H-benzo[e]imidazo[2,1-c]pyrrolo[1,2-a][1,4]diazepin-7-yl)pyrrolidin-3-ol] came in with an IC50 of less than 50 nM.
The result for `O[C@@H]1CN(c2ccc3c(c2)Cn2cc(-c4ccc(F)cc4)cc2-c2nccn2-3)C[C@H]1CN1CCCC1` [Compound 471, (3S,4R)-1-(12-(4-fluorophenyl)-9H-benzo[e]imidazo[2,1-c]pyrrolo[1,2-a][1,4]diazepin-7-yl)-4-(pyrrolidin-1-ylmethyl)pyrrolidin-3-ol] reads less than 50 nM; that for `CN(C)C1CCN(c2ccc3c(c2)Cn2cc(-c4ccc(F)cc4)cc2-c2ncnn2-3)CC1` [Compound 428, 1-(12-(4-fluorophenyl)-9H-benzo[e]pyrrolo[1,2-a][1,2,4]triazolo[5,1-c][1,4]diazepin-7-yl)-N,N-dimethylpiperidin-4-amine], 50 to 100 nM; that for `CNC[C@H]1CN(c2ccc3c(c2)Cn2cc(-c4ccc(F)cc4)cc2-c2nccn2-3)C[C@H]1F` [Compound 466, 1-((3S,4S)-4-fluoro-1-(12-(4-fluorophenyl)-9H-benzo[e]imidazo[2,1-c]pyrrolo[1,2-a][1,4]diazepin-7-yl)pyrrolidin-3-yl)-N-methylmethanamine], less than 50 nM.
